In PMC8880313, “Discovery of Novel Andrographolide Derivatives as Antiviral Inhibitors against Human Enterovirus A71” (Pharmaceuticals, 2022):

Tests used:
[1] = design: method as in PMID 34816382; details: cited from earlier work
[2] = design: method as in PMID 34816382; details: cited from earlier work; remark: listed apart in the source
[3] = tested on: EV-A71; assay: Immunofluorescence-based preliminary screen of EV-A71-infected RD cells; assay type: cell-based, human enterovirus A71 (EV-A71) strain 41; details: EV-A71-infected RD cells (MOI = 1)
From the text: The screening assay was built using an immunofluorescence approach that was previously established and validated, with DAPI-stained nuclei accounting for total cell count and FITC-stained EV-A71 accounting for infected cell count upon EV-A71 infection and compound treatment. Both cell counts would then be used to calculate percentage infection and percentage inhibition to identify for hits. Before the screening platform can be employed to screen for potential antivirals, its robustness has to be appraised. In this study, Z-factor was calculated to assess the robustness of the screening platform. Firstly, seeded RD cells were either infected with EV-A71 (Multiplicity of Infection of 1) or mock-infected with media. The cells were then fixed, stained and imaged 12 h post-infection (hpi). The IFA images were analyzed with the Cell Profiler software to determine the infection rate of each well. Between the virus-infected and mock-infected wells, a clear distinction in infection rates could be observed (Figure 1a). […] In this case, the Z-factor, measured at 0.818, was indicative of a highly robust screening platform for high-throughput screening. The constructed screening platform was then employed to screen the compound library made up of 344 chemically synthesized novel compounds analogous to andrographolide. The compounds were screened at 10 µM with IFA images taken and analyzed to identify for hits. Treatment with 0.1% DMSO was used as vehicle control.
Seeded 96-well plates (Corning Inc., Corning, NY, USA), with 2 × 10^4 RD cells per well, were incubated overnight at 37 °C with 5% CO2. The seeded cells were then infected with EV-A71 (50 µL per well, MOI = 1) for 1 h at 37 °C with 5% CO2. The EV-A71-infected cells were then treated with the compound library at a final concentration of 10 µM for 12 h at 37 °C with 5% CO2. Treatment with 0.1% DMSO was used as vehicle control. Following treatment, cells were fixed with 100 µL of methanol (Sinopharm Chemical, Shanghai, China) for 15 min at −20°C and rinsed with 100 µL of 1x PBS for three times before performing indirect immunofluorescence assay (IFA). Anti-EV-A71 VP2 1° antibodies, MAB979 (Merck Millipore, Burlington, VT, USA), diluted 500-fold in PBS, was incubated with the fixed cells for 1 h at 37 °C. Cells were then rinsed thrice with PBS and incubated with anti-mouse FITC 2° antibodies (Merck Millipore), diluted 200-fold in PBS, for 1 h at 37 °C. After which, the cells were rinsed thrice with PBS before staining with DAPI (Sigma-Aldrich) at room temperature for 15 min. Cells were then rinsed thrice and preserved in 100 µL of PBS before imaging with the Operetta High-Content Imaging System and the Harmony High-Content Imaging and Analysis Software (Perkin Elmer, Waltham, MA, USA). Images of stained cells were captured with the DAPI and FITC fluorescence filters, from a pre-determined central position of each well and processed with the Cell Profiler software. […] The percentage infection (PI) for each well was calculated using the formula: Infected cell count/Total cell count × 100%. The percentage inhibition for each well was calculated using the formula PI0− PI/PI0 × 100% where PI0 refers to the percentage infection of wells treated with the vehicle control while PI refers to the percentage infection of wells treated with the compounds.

[4] = tested on: EV-A71; assay: Post-treatment assay with viral plaque assay; assay type: cell-based, human enterovirus A71 (EV-A71) strain 41; details: for reduction in viral titre: post-treatment, 12 hpi
Protocol: (§1) Firstly, we performed cell viability assay to evaluate the cytotoxicity profile of the 19 hits. Cells seeded overnight were treated with the hit compounds at 10 µM. […] Anti-EV-A71 activity of AGP-253 had been illustrated and discussed previously. We were particularly interested in ZAF-46 and ZAF-47 as they belonged to the same series bearing novel 14-quinolinoxy and 17-hydro-8,9-olefin modifications (Figure 2b) that could potentially open up new targets for EV-A71 therapeutics. Additional cell viability assays were performed for ZAF-46 and ZAF-47 at different concentrations to identify the low cytotoxic concentrations for downstream post-treatment assays. For post-treatment assays, cells seeded overnight were infected with EV-A71 and subsequently treated with ZAF-46 and ZAF-47 at different concentrations. […] Treatment with ZAF-46 led to 1.4 log reduction at 10 µM and 2.4 log reduction at 20 µM (Figure 2c) while treatment with ZAF-47 led to 0.8 log reduction at 5 µM, 1.1 log reduction at 10 µM and 2.1 log reduction at 20 µM (Figure 2d). CC50 and IC50 for both compounds were determined and used to derive their SI (Table 2). ZAF-47 was selected for further downstream analysis due to its higher SI value which indicate higher pharmacological value for clinical use.
To determine the inhibitory profiles of the hits, post treatment assay was performed. Seeded 24-well plates, with 1.5 × 10^5 RD cells per well, were incubated overnight at 37 °C with 5% CO2. The seeded cells were infected with EV-A71 (100 µL per well, MOI = 1) for 1 h at 37 °C with 5% CO2 and then rinsed with 1 mL of PBS twice. Different concentrations of the hits were used to treat the infected cells for 12 h at 37 °C with 5% CO2. At 12 hpi, the plates were frozen and thawed for 2 cycles (−80°C; 37 °C) before collection of supernatants to measure the viral titres via viral plaque assay.
Measurement of the viral titres from collected supernatants was derived from viral plaque assays. To do this, 24-well plates, seeded with 2.4 × 10^5 RD cells per well, were used in plaque assays for EV-A71, EV-D68, Echo7, CV-A6, CV-A16 and CV-A24 while 24-well plates, seeded with 1.2 × 10^5 Vero cells per well, were used in plaque assays for CV-B5. Seeded cells were incubated overnight at 37 °C with 5% CO2. Viral supernatants were diluted from 10^−1 to 10^−7 in reduced serum DMEM before infecting the cells with a volume of 100 µL for 1 h at 37 °C with 5% CO2 (33 °C instead for EV-D68). Cells were rinsed twice with PBS before overlaying with 1 mL of reduced serum DMEM containing 0.5% agarose (Vivantis, Shah Alam, Malaysia). Cells infected with Echo7 supernatants were incubated for 2 days, cells infected with CV-A24 and CV-B5 supernatants were incubated for 3 days and cells infected with EV-A71, CV-A6, CV-A16 and EV-D68 supernatants were incubated for 4 days for the formation of plaques. Subsequently, the cells were fixed and stained overnight with 4% paraformaldehyde and 1% crystal violet (Sigma-Aldrich). Subsequent formation of viral plaques was counted manually to quantify the viral titre in PFU/mL

[5] = tested on: RD cells; assay: Cell viability assay (alamarBlue); assay type: cell-based, human; details: 10 µM, 12 h
Protocol: as §1
(§2) To determine the cytotoxicity profiles of the hits, cell viability assay was performed. Seeded 96-well plates, with 2 × 10^4 RD cells per well, were incubated overnight at 37 °C with 5% CO2. Different concentrations of drug hits, diluted by reduced serum DMEM, were used to treat the seeded cells for 12 h at 37 °C with 5% CO2. Reduced serum DMEM, was employed as the negative control and 0.1% DMSO as the vehicle control for this step. Subsequently, the supernatant was replaced with alamarBlue^TM Cell Viability Reagent (Thermo Fisher Scientific, Waltham, MA, USA) (100 µL), diluted 10-fold in reduced serum DMEM, and incubated for 3 h at 37 °C with 5% CO2. Fluorescence intensity in each well was measured at 570 nm excitation wavelength and 600 nm emission wavelength in each well by the Infinite^TM 200 series microplate reader (Tecan, Männedorf, Switzerland) and normaliszd with the negative control to determine the relative cell viability.

[6] = Cell viability assay (alamarBlue); assay type: cell-based, human; details: human, RD cells
Protocol: as §1, §2

[7] = tested on: replication-competent EV-A71 RNA replicon; assay: Nano-luciferase reporter assay, replication-competent replicon; assay type: cell-based, human enterovirus A71 (EV-A71); details: RD cells, 12 h; ZAF-47 different concentrations, GuHCl 1 mM
Protocol: To identify specifically which of these two intrinsically linked processes that ZAF-47 inhibits, we transfected RD cells with EV-A71 RNA replicons that were either replication-competent or replication-defective and subsequently treated them with different concentrations of ZAF-47 for 12 h before detecting for luminescence. Both forms of replicons were previously established and validated. The replication-competent replicon is capable of self-replicating as it contains an intact 3D region that encodes for 3D polymerase (3D^pol) responsible for RNA replication (Figure 4c). […] In contrast, the replication-defective replicon contains a 3D region with 159 nucleotide deletion which would produce a non-functional 3D protein and impair RNA replication (Figure 4c). As such, cells containing the replication-defective replicon express luciferase upon IRES translation of the original replicons only. The transfected cells were also treated with negative control, DMSO and positive controls, guanidine hydrochloride (GuHCl) and cycloheximide (CHX), a RNA replication-specific inhibitor [50] and a general translation inhibitor [51] respectively.
Seeded 96-well plates, with 2 × 10^4 RD cells per well, were incubated overnight at 37 °C with 5% CO2. […]

C=C1CC[C@@H]2[C@](C)(CO)[C@H](O)CC[C@@]2(C)[C@@H]1C/C=C1/C(=O)OC[C@H]1O [andrographolide]
bioavailability [1]: poor bioavailability
water solubility [2]: low water solubility

CC(=O)OC[C@]1(C)[C@H](O)CC[C@@]2(C)C(C/C=C3/C(=O)OC[C@@H]3Oc3cccc4cccnc34)=C(C)CC[C@H]12 [ZAF-46, (14β)-(8′-Quinolinoxy)-9-dehydro-17-hydro-19-acetoxy-andrographolide]
Nuclei Count ([3]; 10 µM, 12 h, 0.1% DMSO wells 998): 1037
inhibition at 10 µM ([3]; Enterovirus A, EVA71, 12 h, read-out: Inhibition Rate (%)): 96%
reduction in viral titre ([4]; 10 µM): 1.4 log
reduction in viral titre ([4]; 20 µM): 2.4 log
IC50 ([4]; Enterovirus A, EVA71, EV-A71-infected RD cells, MOI = 1, 12 h treatment, viral plaque assay): 4.44 µM
Selectivity Index (SI) ([4]; SI = CC50/IC50): 6.73
cytotoxicity [5]: low cytotoxicity
CC50 at 12 h [6]: 29.9 µM

CC1(CO)C(O)CCC2(C)C(CC=C3C(=O)OCC3Oc3ccc([N+](=O)[O-])cc3Cl)C3(CCC12)CO3 (stereo not drawn) [AGP-253, 14S-(2′-Chloro-4′-Nitrophenoxy)-8R/S, 17-Epoxy Andrographolide]
Inhibition Rate (%) ([3]; 10 µM, 12 h): 98.91%
cytotoxicity [5]: low cytotoxicity

Cl.N=C(N)N [GuHCl, guanidine hydrochloride, reference compound]
luminescence, replication-competent replicon [7]: significant decrease in luminescence
